# From patent publication US20230348562A1, “Proinsulin Peptides for Type I Diabetes” (King's College London, priority 2019, published 2023)
# Where no end group is shown, it is not given here.
# Key:
# DR3DQ2×RIP-B7.1 mice = assay: Adjuvanted antigen priming (disease acceleration), diabetes monitoring; assay type: in vivo
# Text: Mice were monitored weekly for diabetes up to 20 weeks post prime. The grey dotted line indicates the expected level of spontaneous diabetes in mice aged 12 weeks on day 0 of the experiments (based on the data in FIG. 1 and normalised for gender). Statistical analysis with Mantel-Cox Log-rank test. **p<0.01, ***p<0.001. • (b-e) Blood glucose levels for each individual mouse in the group immunised with PBS (b), murine proinsulin-2 peptides (c), human GAD65 (d) or fragment of human IA-2 (e).
# Mice were monitored weekly for diabetes up to 20 weeks post prime. The grey dotted line indicates the expected level of spontaneous diabetes in mice aged 8 weeks on day 0 of the experiment, based on the data in FIG. 1 and normalised for gender. Statistical analysis with Mantel-Cox Log-rank test. ***p<0.001 for B23-C20 versus B1-30 or C10-A6. ? p<0.01 for B23-C20 versus C25-A21. Rest not significant. • (b-e) Blood glucose levels for each individual mouse in the group immunised with B1-30 (b), B23-C20 (c), C10-A6 (d) or C25-A21 (e).
# (a) DR3DQ2×RIP-B7.1 mice aged 10-14 weeks were challenged with 100 μg of either GP-15 (2 ♂3♀), YA-15 (2 ♂3♀), ME-15 (3 ♂2♀), RG-15 (3 ♂2♀), DA-15 (2 ♂3♀) or VD-14 (3♂2♀) peptide in TiterMax Gold adjuvant s.c. on days 0 and 14, with 200 ng pertussis toxin administered i.p on days 0 and 1 or 2. Mice were monitored weekly for diabetes up to 20 weeks post prime. The grey dotted line indicates the expected level of spontaneous diabetes in mice aged 14 weeks on day 0 of the experiments (based on the data in FIG. 1 and normalised for gender). Statistical analysis with Mantel-Cox Log-rank test. *p<0.05 for RG-15 versus YA-15, **p<0.01 for ME-15 versus GP-15, YA-15 or VD-14. ? p<0.05 for ME-15 versus DA-15. Rest not significant. (b-f) Blood glucose levels for each individual mouse in the group immunised with GP-15 (b), YA-15 (c), ME-15 (d), RG-15 (e), DA-15 (f), VD-14 (g).
# HLA-DR3-DQ2-transgenic (B6.hCD4.DR3-DQ2.MHCII^−/− mice (described previously (de Kauwe A L et al. (2009) J Immunol 182(12): 7440-7450), and obtained from J. McCluskey) were crossed with RIP-B7.1-transgenic animals (B6.Cg-Tg(Ins2-CD80)3B7Flv/Orl, EMMA, Orleans, France; ID 00216) in order to obtain HLA-DR3-DQ2^+huCD4^+IA/IE^−/−RIP.B7.1^+ mice, hereafter referred to as DR3DQ2×RIP-B7.1. DR4×RIP-B7.1 mice, generated by crossing B6.129S2-H2-Ab1^tm/Gru Tg(HLA-DRA/H2-Ea,HLA-DRB1*0401/H2-Eb) 1Kito mice with B6.Cg-Tg(Ins2-CD80)3B7Flv/Orl, were described previously (Verhagen J, et al. (2018) Sci Rep 8(1): 14106). All animals were kept under specific-pathogen-free conditions, in individually ventilated cages, at the KCL Biological Services Unit on 12-hour light/dark cycles with food and water provided ad libitum. Experiments were conducted in accordance with UK Home Office regulations under a project license held by M. Peakman. All work was subject to assessment and approved locally by Guy's animal welfare and ethical review board (AWERB).
# All mice were monitored regularly for unprovoked glycosuria using Diastix strips (Bayer, Basel, Switzerland). Some mice were monitored weekly for hyperglycaemia, from the age of 6-7 weeks, by a minimal puncture of the tail vein at alternate sides of the tail and analysis using a OneTouch Verio meter and strips (Lifescan, High Wycombe, UK), in order to closely monitor progression towards spontaneous diabetes. Mice were considered diabetic following a blood glucose reading >16.7 mmol/l (300 mg/dl) in addition to confirmed glycosuria. […] Mice (aged 6-14 weeks) were primed with 100 μg of peptides or protein in TiterMax Gold adjuvant (TiterMax, Norcross, GA, USA) subcutaneously (s.c.) at the base of the tail and received a second dose s.c. distributed over the inguinal region on day 14. Mice received 200 ng Pertussis toxin (Sigma, Poole, UK) in PBS intraperitoneally (i.p.) on days 0 and 1 or 2. Mice were then monitored weekly for hyperglycaemia and for glycosuria. […]
# RIP.CD80×DR3DQ2 mice = assay: Tolerance induction against accelerated diabetes; assay type: in vivo; details: 10 μg soluble peptide s.c., 6 injections, before and after priming with murine B23-C20 in adjuvant; ME-15 versus YA-15 p<0.01, versus VD-14 p<0.05
# Protocol: FIG. 6 Tolerance induction against accelerated diabetes in RIP.CD80×DR3DQ2 mice. (a) Schedule of dosing. Mice aged 7-8 weeks (n=7 per group) were treated with soluble 14/15-mer peptide in PBS subcutaneously (s.c.) before and after acceleration of diabetes development by antigenic priming with 30-mer murine proinsulin-2 peptide B23-C20 in TiterMax Gold adjuvant on days 0 and 14. Pertussis toxin administered intraperitoneally (i.p.) on days 0 and 2. (b) Diabetes incidence in mice treated with 14/15-mer peptide ME-15 (1♀6♂), YA-15 (4♀3♂) or VD-14 (3♀4♂). Statistical analysis with Mantel-Cox Log-rank test. ME-15 versus YA-15, p<0.01; ME versus VD-14, p<0.05.
# All mice were monitored regularly for unprovoked glycosuria using Diastix strips (Bayer, Basel, Switzerland). Some mice were monitored weekly for hyperglycaemia, from the age of 6-7 weeks, by a minimal puncture of the tail vein at alternate sides of the tail and analysis using a OneTouch Verio meter and strips (Lifescan, High Wycombe, UK), in order to closely monitor progression towards spontaneous diabetes. Mice were considered diabetic following a blood glucose reading >16.7 mmol/l (300 mg/dl) in addition to confirmed glycosuria. […] Mice were then monitored weekly for hyperglycaemia and for glycosuria. […]
# [1] = tested on: human peripheral blood mononuclear cells (PBMCs); assay: ELISPOT assay of cytokine responses to proinsulin peptides; assay type: cell-based; details: 10 μg/ml peptide, 48 hours
# Text: Responses to proinsulin B30-C13 in human donors. PBMC from individuals with either HLA-DR3-DQ2 (a) or any other haplotype (b) were stimulated in vitro with human proinsulin-derived peptide B30-C13 or C19-A3 prior to detection of IFNγ by ELISPOT assay. HLA-DR3-DQ2 individuals, n=3; non-HLA-DR3-DQ2, n=6. *p<0.05, ratio paired t test.
# Responses to proinsulin B23-C20, B29-C11, B29-C14, B30-C13 and C-1-C14 peptides are shown. PBMCs from 5 type 1 diabetes patients with HLA-DR3-DQ2 (identified as #1-#5) were stimulated in vitro with human proinsulin-derived peptides B23-C20, B29-C11, B29-C14, B30-C13 and C−1-C14 prior to detection of IFN-γ and IL-17 (pro-inflammatory responses) and IL-10 (regulatory response) by ELISPOT assay. […]
# ELISPOT assays were carried out using human peripheral blood mononuclear cells (PBMCs) isolated from fresh heparinized blood. […] The cytokine secretion assay was performed using the IFN-γ, IL-17 and IL-10 ELISPOT kits (U-CyTech) according to the manufacturer's instructions and plates were analysed using an automated ELISPOT Bioreader 6000 (Bio-Sys) and relevant software. Data are expressed as the total number of spots in triplicate wells after peptide stimulation divided by the total number of spots in diluent only control wells (stimulation index [SI]) or as responder CD4 T cells/10^6 PBMCs.
# Solubility of peptide = assay type: physicochemical
# [2] = adjuvanted priming, follow up to 20 weeks post prime
substance,measurement,setting,value
"VAQLELGGGPGAGD (listed as Mus musculus) [VD-14, murine proinsulin-2 14-mer]",diabetes acceleration / incidence versus control or spontaneous onset (in words),DR3DQ2×RIP-B7.1 mice; [2],cannot
GAD65: Recombinant human GAD65 (T-cell GAD) purchased from Diamyd Medical,diabetes acceleration / incidence versus control or spontaneous onset (in words),DR3DQ2×RIP-B7.1 mice; [2],only priming with proinsulin peptides clearly hastened diabetes onset and increased incidence
MSRREVEDPQVAQLE (listed as Mus musculus) [ME-15],tolerogenic effect on diabetes induced with B23-C20,RIP.CD80×DR3DQ2 mice,tolerogenic effect
same,diabetes acceleration / incidence versus control or spontaneous onset (in words),DR3DQ2×RIP-B7.1 mice; [2],markedly higher disease incidence during follow up than would be expected spontaneously
"DPQVAQLELGGGPGA (listed as Mus musculus) [DA-15, murine proinsulin-2 15-mer]",diabetes acceleration / incidence versus control or spontaneous onset (in words),DR3DQ2×RIP-B7.1 mice; [2],cannot
"TRREAEDLQVGQVELG (listed as Homo sapiens) [B30-C13, fragment of human proinsulin, residues B30-C13]","IFNγ ELISPOT response, HLA-DR3-DQ2 donors versus donors without this haplotype","[1]; HLA-DR3-DQ2 n=3, non-HLA-DR3-DQ2 n=6",greater response
same,IFNγ ELISPOT response versus control peptide C19-A3,[1]; p<0.05 ratio paired t test,greater than that to our control peptide C19-A3
"REVEDPQVAQLELGG [RG-15, REVEDPQVAQLELGG]",solubility in aqueous solution,Solubility of peptide; aqueous solution,highly insoluble
same,solubility in dimethyl sulfoxide,Solubility of peptide; dimethyl sulfoxide,soluble
"GFFYTPMSRREVEDPQVAQLELGGGPGAGD (listed as Mus musculus) [B23-C20, murine 30-mer proinsulin-2 peptide B23-C20]",mean time of onset of diabetes (SD),"DR3DQ2×RIP-B7.1 mice; 100 μg in TiterMax Gold adjuvant s.c. days 0 and 14, pertussis toxin",49±16.2 days post prime
same,diabetes incidence,"DR3DQ2×RIP-B7.1 mice; by day 84 post prime, 100 μg in TiterMax Gold adjuvant",100%
same,diabetes acceleration / incidence versus control or spontaneous onset (in words),"DR3DQ2×RIP-B7.1 mice; mouse, in vivo","most overt disease exacerbation, with very rapid development of diabetes"
